Results from US20240376056A1, “PHENYL ACETAMIDE BASED IL-17A MODULATORS AND USES THEREOF” (DiCE Alpha, Inc., priority 2021, published 2024).

Molecular target: T1, IL-17A/A (Homo sapiens, UniProt Q16552)
T1 construct: purchased Genscript Z03228
T1 sequence (Q16552 24-155): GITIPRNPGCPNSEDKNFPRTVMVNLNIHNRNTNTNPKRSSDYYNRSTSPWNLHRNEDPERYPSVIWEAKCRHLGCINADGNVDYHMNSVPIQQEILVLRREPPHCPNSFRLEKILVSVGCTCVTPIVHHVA
Assay: HEK-Blue IL-17A/A inhibition assay (SEAP reporter)
Assay type: cell-based
Conditions: HEK-Blue cells (HEK 293 expressing IL-17RA, IL-17RC, Act1); IL-17A/A stimulation; 20 hours; SEAP read at A630; 4-parameter fit
In short: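 IC50 from a 4-parameter fit of SEAP signal (Quanti-Blue, A630) after 20 h co-incubation of compound and IL-17A/A. Reporter line: HEK 293 expressing IL-17RA, IL-17RC and Act1 with NFκB-SEAP; compound top final 10, 1 or 0.3 uM, DMSO 0.1% final.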

| SMILES | IC50 |
| --- | --- |
| CC(C)n1nccc1C(=O)N[C@H](C(=O)Nc1ccc([C@H](C)C(=O)NC2(C(F)(F)F)CNC2)cc1F)C(C1CC1)C1CC1 [Compound 52, N-((S)-1.1-dicyclopropyl-3-((2-fluoro-4-((S)-1-oxo-1-((3-(trifluoromethyl)azetidin-3-yl)amino)propan-2-yl)phenyl)amino)-3-oxopropan-2-yl)-1-isopropyl-1H-pyrazole-5-carboxamide] | > 1000 nM |
| CC(C)n1nccc1C(=O)N[C@H](C(=O)Nc1ccc([C@H](C)C(=O)N[C@H](C)C(F)(F)F)cc1F)C(C1CC1)C1CC1 [Compound 54, N-((S)-1,1-dicyclopropyl-3-((2-fluoro-4-((S)-1-oxo-1-(((R)-1,1,1-trifluoropropan-2-yl)amino)propan-2-yl)phenyl)amino)-3-oxopropan-2-yl)-1-isopropyl-1H-pyrazole-5-carboxamide] | > 1000 nM |
| CC(C)n1nccc1C(=O)N[C@H](C(=O)Nc1ccc([C@H](C)C(=O)N[C@@H](C)C(F)(F)F)cc1F)C(C1CC1)C1CC1 [Compound 55, N-((S)-1,1-dicyclopropyl-3-((2-fluoro-4-((S)-1-oxo-1-(((S)-1,1,1-trifluoropropan-2-yl)amino)propan-2-yl)phenyl)amino)-3-oxopropan-2-yl)-1-isopropyl-1H-pyrazole-5-carboxamide] | 100 to 1000 nM |
| CC(C)n1nccc1C(=O)N[C@H](C(=O)Nc1ccc([C@H](C)C(=O)N2CCOc3ccccc3C2C(F)(F)F)cc1F)C(C1CC1)C1CC1 (stereo partly drawn) [Compound 56, N-((2S)-1,1-dicyclopropyl-3-((2-fluoro-4-((2S)-1-oxo-1-(5-(trifluoromethyl)-2,3-dihydrobenzo[f][1,4]oxazepin-4(5H)-yl)propan-2-yl)phenyl)amino)-3-oxopropan-2-yl)-1-isopropyl-1H-pyrazole-5-carboxamide] | 100 to 1000 nM |
| CC(C)n1nccc1C(=O)N[C@H](C(=O)Nc1ccc([C@H](C)C(=O)NCC(C)(F)F)cc1F)C(C1CC1)C1CC1 [Compound 57, N-((S)-1,1-dicyclopropyl-3-((4-((S)-1-((2,2-difluoropropyl)amino)-1-oxopropan-2-yl)-2-fluorophenyl)amino)-3-oxopropan-2-yl)-1-isopropyl-1H-pyrazole-5-carboxamide] | 100 to 1000 nM |
| CC(C)n1nccc1C(=O)N[C@H](C(=O)Nc1ccc([C@H](C)C(=O)N2C[C@H](F)C[C@H]2C(F)(F)F)cc1F)C(C1CC1)C1CC1 [Compound 58, N-((S)-1,1-dicyclopropyl-3-((2-fluoro-4-((S)-1-((2S,4R)-4-fluoro-2-(trifluoromethyl)pyrrolidin-1-yl)-1-oxopropan-2-yl)phenyl)amino)-3-oxopropan-2-yl)-1-isopropyl-1H-pyrazole-5-carboxamide] | 100 to 1000 nM |
| CC(C)n1nccc1C(=O)N[C@H](C(=O)Nc1ccc([C@H](C)C(=O)N2C[C@@H](F)C[C@@H]2C(F)(F)F)cc1F)C(C1CC1)C1CC1 [Compound 59, N-((S)-1,1-dicyclopropyl-3-((2-fluoro-4-((S)-1-((2R^4S)-4-fluoro-2-(trifluoromethyl)pyrrolidin-1-yl)-1-oxopropan-2-yl)phenyl)amino)-3-oxopropan-2-yl)-1-isopropyl-1H-pyrazole-5-carboxamide] | > 1000 nM |
| CC(C)n1nccc1C(=O)N[C@H](C(=O)Nc1ccc([C@H](C)C(=O)N2C[C@@H](F)C[C@H]2C(F)(F)F)cc1F)C(C1CC1)C1CC1 [Compound 60, N-((S)-1,1-dicyclopropyl-3-((2-fluoro-4-((S)-1-((2S,4S)-4-fluoro-2-(trifluoromethyl)pyrrolidin-1-yl)-1-oxopropan-2-yl)phenyl)amino)-3-oxopropan-2-yl)-1-isopropyl-1H-pyrazole-5-carboxamide] | < 100 nM |
| CCOC(=O)CC(NC(=O)[C@@H](C)c1ccc(NC(=O)[C@@H](NC(=O)c2ccnn2C(C)C)C(C2CC2)C2CC2)c(F)c1)C(F)(F)F (stereo partly drawn) [Compound 61, ethyl 3-((S)-2-(4-((S)-3,3-dicyclopropyl-2-(1-isopropyl-1H-pyrazole-5-carboxamido)propanamido)-3-fluorophenyl)propanamido)-4,4,4-trifluorobutanoate] | < 100 nM |
| COC(=O)C(NC(=O)[C@@H](C)c1ccc(NC(=O)[C@@H](NC(=O)c2ccnn2C(C)C)C(C2CC2)C2CC2)c(F)c1)C(F)(F)F (stereo partly shown) [Compound 62] | 100 to 1000 nM |
| CC(C)n1nccc1C(=O)N[C@H](C(=O)Nc1ccc([C@H](C)C(=O)NC(C(N)=O)C(F)(F)F)cc1F)C(C1CC1)C1CC1 (stereo partly drawn) [Compound 63, N-((2S)-1-((4-((2S)-1-((3-amino-1,1-trifluoro-3-oxopropan-2-yl)amino)-1-oxopropan-2-yl)-2-fluorophenyl)amino)-3,3-dicyclopropyl-1-oxopropan-2-yl)-1-isopropyl-1H-pyrazole-5-carboxamide] | < 100 nM |
| CC(C)n1nccc1C(=O)N[C@H](C(=O)Nc1ccc([C@H](C)C(=O)N2CC[C@H]2C(F)(F)F)cc1F)C(C1CC1)C1CC1 [Compound 64, N-((S)-1,1-dicyclopropyl-3-((2-fluoro-4-((S)-1-oxo-1-((S)-2-(trifluoromethyl)azetidin-1-yl)propan-2-yl)phenyl)amino)-3-oxopropan-2-yl)-1-isopropyl-1H-pyrazole-5-carboxamide] | 100 to 1000 nM |
| CC(C)n1nccc1C(=O)N[C@H](C(=O)Nc1ccc([C@H](C)C(=O)NCC(F)(F)CO)cc1F)C(C1CC1)C1CC1 [Compound 65, N-((S)-1,1-dicyclopropyl-3-((4-((S)-1-((2,2-difluoro-3-hydroxypropyl)amino)-1-oxopropan-2-yl)-2-fluorophenyl)amino)-3-oxopropan-2-yl)-1-isopropyl-1H-pyrazole-5-carboxamide] | > 1000 nM |
| CC(C)n1nccc1C(=O)N[C@H](C(=O)Nc1ccc([C@H](C)C(=O)NC(c2ccccc2)C(F)(F)F)cc1F)C(C1CC1)C1CC1 (stereo partly drawn) [Compound 66, N-((2S)-1,1-dicyclopropyl-3-((2-fluoro-4-((2S)-1-oxo-1-((2,2,2-trifluoro-1-phenylethyl)amino)propan-2-yl)phenyl)amino)-3-oxopropan-2-yl)-1-isopropyl-1H-pyrazole-5-carboxamide] | 100 to 1000 nM |
| CC(C)n1nccc1C(=O)N[C@H](C(=O)Nc1ccc([C@H](C)C(=O)NC(C2CCOC2)C(F)(F)F)cc1F)C(C1CC1)C1CC1 (stereo partly drawn) [Compound 67, N-[(1S)-1-(dicyclopropylmethyl)-2-[2-fluoro-4-[(1S)-1-methyl-2-oxo-2-[(2,2,2-trifluoro-1-tetrahydrofuran-3-yl-ethyl)amino]ethyl]anilino]-2-oxo-ethyl]-2-isopropyl-pyrazole-3-carboxamide] | < 100 nM |
| CCn1nccc1C(=O)N[C@H](C(=O)Nc1ccc([C@H](C)C(=O)N(C)CC(F)(F)F)cc1F)C(C1CC1)C1CC1 [Compound 68, N-((S)-1,1-dicyclopropyl-3-((2-fluoro-4-((S)-1-(methyl(2,2,2-trifluoroethyl)amino)-1-oxopropan-2-yl)phenyl)amino)-3-oxopropan-2-yl)-1-ethyl-1H-pyrazole-5-carboxamide] | < 100 nM |
| CCn1nccc1C(=O)N[C@H](C(=O)Nc1ccc([C@H](C)C(=O)N(C)CC(F)(F)F)cc1F)[C@H]1CC[C@H](C)CC1 [Compound 71, -ethyl-N-((S)-2-((2-fluoro-4-((S)-1-(methyl(2,2,2-trifluoroethyl)amino)-1-oxopropan-2-yl)phenyl)amino)-1-((1r,4S)-4-methylcyclohexyl)-2-oxoethyl)-1H-pyrazole-5-carboxamide] | < 100 nM |
| CC[C@@H](c1ccc(Cl)cc1)[C@H](NC(=O)c1ccnn1CC)C(=O)Nc1ccc([C@H](C)C(=O)N(C)CC(F)(F)F)cc1F [Compound 72, N-((2S,3S)-3-(4-chlorophenyl)-1-((2-fluoro-4-((S)-1-(methyl(2,2,2-trifluoroethyl)amino)-1-oxopropan-2-yl)phenyl)amino)-1-oxopentan-2-yl)-1-ethyl-1H-pyrazole-5-carboxamide] | 100 to 1000 nM |
| CCn1nccc1C(=O)N[C@H](C(=O)Nc1ccc([C@H](C)C(=O)N(C)CC(F)(F)F)cc1F)[C@H](c1ccccc1Cl)C(C)C [Compound 73, N-((2S,3S)-3-(2-chlorophenyl)-1-((2-fluoro-4-((S)-1-(methyl(2,2,2-trifluoroethyl)amino)-1-oxopropan-2-yl)phenyl)amino)-4-methyl-1-oxopentan-2-yl)-1-ethyl-1H-pyrazole-5-carboxamide] | > 1000 nM |
| CCn1nccc1C(=O)N[C@H](C(=O)Nc1ccc([C@H](C)C(=O)N(C)CC(F)(F)F)cc1F)C1CCC(F)(F)CC1 [Compound 74, N-((S)-1-(4,4-difluorocyclohexyl)-2-((2-fluoro-4-((S)-1-(methyl(2,2,2-trifluoroethyl)amino)-1-oxopropan-2-yl)phenyl)amino)-2-oxoethyl)-1-ethyl-1H-pyrazole-5-carboxamide] | 100 to 1000 nM |
| CCn1nccc1C(=O)N[C@H](C(=O)Nc1ccc([C@H](C)C(=O)N(C)CC(F)(F)F)cc1F)C1CCC2(CC1)CC2 [Compound 75, 1-ethyl-N-((S)-2-((2-fluoro-4-((S)-1-(methyl(2,2,2-trifluoroethyl)amino)-1-oxopropan-2-yl)phenyl)amino)-2-oxo-1-(spiro[2.5]octan-6-yl)ethyl)-1H-pyrazole-5-carboxamide] | 100 to 1000 nM |
| CC(C)n1nccc1C(=O)N[C@H](C(=O)Nc1ccc([C@H](C)C(=O)N(C)CC(F)(F)F)cc1F)C(C1CC1)C1CC1 [Compound 78, N-((S)-1,1-dicyclopropyl-3-((2-fluoro-4-((S)-1-(methyl(2,2,2-trifluoroethyl)amino)-1-oxopropan-2-yl)phenyl)amino)-3-oxopropan-2-yl)-1-isopropyl-1H-pyrazole-5-carboxamide] | < 100 nM |
